From ChEMBL document CHEMBL1201862, “PubChem BioAssay data set” (2004) come the findings set out here.

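Growth conditions: 96-well plates. Treatment: test compound, 48 hours, 5 concentrations. Analysis: linear interpolation between bracketing concentrations; unreached endpoints set to highest concentration. GI50 marks 50% less growth.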 Calls of active or inactive are those of the source. No stated cut-off is given here; in the data, active = GI50 up to about 1.1 µM and inactive = higher. Some results are limits rather than exact numbers.

Common to all, as to assay: growth of human tumour cells (NCI), 48 h
Assay [1] concerns 786-0.
The test system of assay [2] is A549.
Assay [3] deals with CAKI-1.
Assay [4] relates to DLD-1.
For assay [5], the system named is DU-145.
Assay [6] has as its system HCT-116.
Assay [7] concerns HOP-62.
In assay [8] the test system is M14.
In assay [9] the test system is MDA-MB-231.
The subject of assay [10] is MDA-N.
Assay [11] deals with MOLT-4.
Assay [12] has as its system NCI-H23.
The test system of assay [13] is OVCAR-5.
For assay [14], the system named is SF-539.
Assay [15] deals with SK-MEL-2.
For assay [16], the system named is SK-MEL-5.
Assay [17] has as its system SNB-19.
The test system of assay [18] is SNB-75.
Assay [19] relates to SR.
Assay [20] relates to U-251.

As to `CN(C)CCC(=O)N1C/C(=C/c2ccccc2)C(=O)/C(=C\c2ccccc2)C1`, the GI50 in assay [1] is 1.49 µM (inactive); in [2] it was 4.7 µM (inactive); in [3], 2.41 µM (inactive); in assay [4], 0.931 µM (active); in assay [5], 6.79 µM (inactive); in assay [6], 0.447 µM (active). Also, the GI50 is 7.31 µM (inactive) in [7]; 1.91 µM (inactive) in [8]; 0.735 µM (active) in [9]; 1.14 µM (inactive) in assay [10]; 0.313 µM (active) in [11]; 2.29 µM (inactive) in assay [12]. Also, the GI50 in [13] was 2.6 µM (inactive); in [14], 3.91 µM (inactive); in [15], 2.95 µM (inactive); in assay [16], 1.45 µM (inactive); in assay [17] it was 2.48 µM (inactive); in [18], 4.74 µM (inactive). Further, the GI50 is 0.386 µM (active) in assay [19] and 0.662 µM (active) in [20].

As for `COC(=O)Cc1cc(O)c2c(c1O)C(=O)c1ccccc1C2=O`, the GI50 in [1] is 21.5 µM (inactive); in assay [2], > 100 µM (inactive); in assay [3], > 100 µM (inactive); in assay [4], > 100 µM (inactive); in [5] it was > 96.2 µM (inactive); in [6] it was > 71 µM (inactive). Moreover, the GI50 was 24.3 µM (inactive) in assay [7]; > 100 µM (inactive) in [8]; 26.5 µM (inactive) in assay [9]; > 100 µM (inactive) in assay [10]; > 84.5 µM (inactive) in assay [11]; > 56 µM (inactive) in assay [12]. Besides, the GI50 in assay [13] was > 100 µM (inactive); in assay [14] it was 35.9 µM (inactive); in assay [15], > 67.5 µM (inactive); in [16], 68.2 µM (inactive); in [17], 38.5 µM (inactive); in [18], 20.6 µM (inactive). Also, the values for the GI50 in [19] and in [20] were > 100 µM (inactive) and 27.9 µM (inactive), respectively.

For `CN(C)[C@@H]1C(O)=C(C(=O)NCNc2nc3[nH]nnc3c(=O)[nH]2)C(=O)[C@@]2(O)C(O)=C3C(=O)c4c(O)cccc4[C@@](C)(O)[C@H]3C[C@@H]12`, the GI50 is 0.637 µM (active) in assay [1]; 55.3 µM (inactive) in [2]; 0.557 µM (active) in assay [3]; 29.7 µM (inactive) in assay [4]; 1.27 µM (inactive) in [5]; 1.21 µM (inactive) in assay [6]. Further, the GI50 in [7] is 0.518 µM (active); in [8] it was 0.557 µM (active); in [9], 0.883 µM (active); in [10], 0.393 µM (active); in assay [11], 0.288 µM (active); in [12], 35.3 µM (inactive). The GI50 in [13] was 33.5 µM (inactive); in assay [14], 0.641 µM (active); in [15] it was 0.139 µM (active); in assay [16], 1.9 µM (inactive); in assay [17], 86.1 µM (inactive); in assay [18], 11.2 µM (inactive). The GI50 in [19] is 0.312 µM (active); in assay [20] it was 2.15 µM (inactive).
